Where a name gives a salt, the structure may show the parent alone. Where a SMILES comes first, the peptide text is derived from it.

The record followed here is patent publication US20190015423A1, “REGULATION OF GENE EXPRESSION BY MODULATING PRIMARY CILIA LENGTH” (THE TRUSTEES OF COLUMBIA UNIVERSITY IN THE CITY OF NEW YORK, priority 2016, published 2019).

In the assay the test system is MLO-Y4 osteocytes. In words: High-throughput drug screening of primary cilia length and incidence. In kind it is cell-based. To be noted: 10 μM, 16 hours, triplicate; normalized to vehicle control; standard deviation away from the population average. An outline of the steps:
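MLO-Y4 osteocytes on collagen I, treated 16 h with 10 μM compound in triplicate, fixed, stained for acetylated α-tubulin and Hoechst, imaged at 40× (4 fields/well); cilia length and incidence normalized to plate DMSO controls. Hits ranked by SD from population mean, requiring ≥40% viability by nuclei count.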

For the compound `COCCc1ccc(OCC(O)CNC(C)C)cc1` (stereo not drawn) [Metoprolol tartrate], the “Average Incidence SD Away” value amounted to 1.601 SD.

As to `CCCc1cc(=O)[nH]c(=S)[nH]1` [Propylthiouracil], the “Average Incidence SD Away” value is on record as 1.659 SD.

Turning to `N=C1C=CC(=C(c2ccc(N)cc2)c2ccc(N)cc2)C=C1` [PARAROSANILINE PAMOATE], the “Average Length SD Away” value is 2.389 SD.

With `Cc1cccc(Cc2c[nH]cn2)c1C` [Detomidine HCl], the “Average Incidence SD Away” value stood at 1.922 SD.

On to `COc1ccc(-c2cc3nccn3c(Nc3ncccc3C(N)=O)n2)cc1OC.Cl.O` [BAY 61-3606 hydrochloride hydrate], for which the “Average Length SD Away” value is 1.54 SD.

Take `C[C@H](CCC(=O)O)[C@H]1CC[C@H]2[C@@H]3C(=O)C[C@@H]4CC(=O)CC[C@]4(C)[C@H]3CC(=O)[C@]12C` [DEHYDROCHOLIC ACID]: the “Average Length SD Away” value was 1.611 SD.

Take `N#CC(c1ccc(Cl)cc1)c1c(Cl)cc(-n2ncc(=O)[nH]c2=O)cc1Cl` (stereo not drawn) [Diclazuril]: the “Average Incidence SD Away” value turned out to be 1.668 SD.

As to `O=C1Cc2c([nH]c3ccc(Br)cc23)-c2ccccc2N1` [Kenpaullone], the “Average Length SD Away” value turned out to be 3.28 SD.

For `Nc1nc2nc[nH]c2c(=S)[nH]1` [THIOGUANINE], the “Average Length SD Away” value is recorded as 1.675 SD.

On to `O=C1C=C2C=C[C@@H]3C[C@@]2(O1)[C@H]1CCCCN31` [SECURININE], for which the “Average Length SD Away” value amounted to 1.502 SD.

In the case of `Nc1nc2[nH]cc(CCc3ccc(C(=O)N[C@@H](CCC(=O)O)C(=O)O)cc3)c2c(=O)[nH]1` [Pemetrexed], the “Average Incidence SD Away” value is given as 2.083 SD and the “Average Length SD Away” value stood at 2.765 SD.

`Cc1ncc([N+](=O)[O-])n1CCO` [Metronidazole (Flagyl), Metronidazole]: the “Average Incidence SD Away” value was determined as 2.092 SD.

Turning to `OCCN(CCO)c1nc(N2CCCCC2)c2nc(N(CCO)CCO)nc(N3CCCCC3)c2n1` [Dipyridamole (Persantine), Dipyridamole], the “Average Incidence SD Away” value worked out at 2.055 SD.

On to `C[N+]1(C)[C@@H]2C[C@@H](OC(=O)C(O)(c3cccs3)c3cccs3)C[C@H]1[C@@H]1O[C@@H]12` [Tiotropium Bromide hydrate], for which the “Average Incidence SD Away” value is 1.593 SD.

With `NC(=O)c1ccc(N)nc1` [6-AMINONICOTINAMIDE], the “Average Length SD Away” value is reported as 2.008 SD.

Regarding `CC1C(=O)OC2C(O)C34C5CC(C(C)(C)C)C36C(OC(=O)C6O)OC4(C(=O)O5)C12O` (stereo not drawn) [Ginkgolide B], the “Average Length SD Away” value is recorded as 1.581 SD.

With Ro 19-4605, the “Average Length SD Away” value was 1.584 SD.

On to `Nc1nc(Cl)nc2c1ncn2[C@H]1C[C@H](O)[C@@H](CO)O1` [Cladribine], for which the “Average Incidence SD Away” value is recorded as 1.604 SD.

As to `c1ccc2c(c1)[I+]c1ccccc1-2` [Diphenyleneiodonium chloride], the “Average Length SD Away” value is listed as 2.603 SD.

As to `O=C[C@H](O)[C@@H](O)[C@H](O)[C@H](O)CO` [Dextrose (D-glucose), D-glucose], the “Average Incidence SD Away” value amounted to 1.518 SD.

As to `O=C([O-])c1ccccc1-c1c2cc(Br)c(=O)cc-2oc2[c]([Hg+])c([O-])c(Br)cc12.[Na+].[Na+].[OH-]` [Merbromin], the “Average Length SD Away” value was 5.067 SD.

Turning to `Cc1nccn1CC1CCc2c(c3ccccc3n2C)C1=O` (stereo not drawn) [Ondansetron (Zofran), Ondansetron], the “Average Incidence SD Away” value is 1.506 SD.

Take `O=c1[nH]c(=O)n([C@H]2C[C@H](O)[C@@H](CO)O2)cc1C(F)(F)F` [Trifluridine (Viroptic), Trifluridine]: the “Average Incidence SD Away” value came out at 2.117 SD and the “Average Length SD Away” value is on record as 1.773 SD.

As to `COC(=O)[C@H]1[C@H]2C[C@@H]3c4[nH]c5cc(OC)ccc5c4CCN3C[C@H]2C[C@@H](OC(=O)c2cc(OC)c(OC)c(OC)c2)[C@@H]1OC` [RESERPINE], the “Average Length SD Away” value worked out at 1.972 SD.

Take `CC1(C)Cc2c(-c3ccccc3)c(-c3ccc(Cl)cc3)c(CC(=O)O)n2C1` [Licofelone]: the “Average Incidence SD Away” value is 1.936 SD.

On to `COc1ccc2oc(-c3ccccc3OC)cc(=O)c2c1` [62 -DIMETHOXYFLAVONE], for which the “Average Length SD Away” value is recorded as 1.745 SD.

Turning to `C[S+]([O-])c1ccc(-c2nc(-c3ccc(F)cc3)c(-c3ccncc3)[nH]2)cc1` (stereo not drawn) [SB 203580], the “Average Length SD Away” value worked out at 1.797 SD.

`Cc1cc2c(s1)Nc1ccccc1N=C2N1CCN(C)CC1` [Olanzapine (Zyprexa), Olanzapine]: the “Average Incidence SD Away” value is reported as 1.609 SD.

`CN/C(=N/CCSCc1nc[nH]c1C)NC#N` [Cimetidine (Tagamet), Cimetidine]: the “Average Incidence SD Away” value was 1.562 SD.

With `CCc1ccc(CCOc2ccc(CC3SC(=O)NC3=O)cc2)nc1` (stereo not drawn) [Pioglitazone hydrochloride (Actos), Pioglitazone hydrochloride], the “Average Incidence SD Away” value is 2.52 SD.

On to `COc1cc2c(cc1O)CC[C@@H]1[C@@H]2CC[C@]2(C)[C@@H](O)CC[C@@H]12` [2-Methoxyestradiol], for which the “Average Length SD Away” value was found to be 1.62 SD.

On to `COc1cc2c(cc1OC)[C@@H]1C(=O)c3ccc4c(c3O[C@@H]1CO2)C=CC(C)(C)O4` [DEGUELIN(−)], for which the “Average Length SD Away” value is reported as 2.48 SD.

Turning to `CCOc1ccc2nc3cc(N)ccc3c(N)c2c1` [Ethacridine lactate monohydrate], the “Average Length SD Away” value turned out to be 2.114 SD.

Consider MONENSIN SODIUM, for which the “Average Length SD Away” value turned out to be 1.722 SD.

Turning to `O=C(CCCCCCC(=O)Nc1ccccc1)NO` [Vorinostat], the “Average Length SD Away” value stood at 3.283 SD.

With `CN(Cc1cc(Br)cc(Br)c1N)C1CCCCC1` [Bromhexine HCl], the “Average Incidence SD Away” value amounted to 1.882 SD and the “Average Length SD Away” value came out at 1.547 SD.

Consider `CC(C)NCC(O)c1ccc(O)c(O)c1` (stereo not drawn) [Isoprenaline hydrochloride], for which the “Average Incidence SD Away” value was found to be 1.623 SD.

As to `C=C(C)[C@H]1CC=C(C(=O)O)CC1` [PERILLIC ACID (−)], the “Average Length SD Away” value was determined as 2.196 SD.

For `CC(C)(C)NCC(O)c1ccccc1Cl` (stereo not drawn) [TULOBUTEROL], the “Average Length SD Away” value is listed as 2.06 SD.

On to `C[C@@H]1CC(=O)NN=C1c1ccc(NN=C(C#N)C#N)cc1` [Levosimendan], for which the “Average Incidence SD Away” value is on record as 1.52 SD.

Turning to `CC[C@]1(O)C[C@@H]2CN(CCc3c([nH]c4ccccc34)[C@@](C(=O)OC)(c3cc4c(cc3OC)N(C)[C@H]3[C@@](O)(C(=O)OC)[C@H](OC(C)=O)[C@]5(CC)C=CCN6CC[C@]43[C@@H]65)C2)C1` [Vinblastine], the “Average Incidence SD Away” value was 3.124 SD and the “Average Length SD Away” value is 1.771 SD.

Consider `Cl.O=C1NCCc2[nH]c(-c3ccncc3)cc21` [PHA 767491 hydrochloride], for which the “Average Length SD Away” value is 1.724 SD.

For the compound `CC(C)c1nc(N(C)S(C)(=O)=O)nc(-c2ccc(F)cc2)c1/C=C/[C@@H](O)C[C@@H](O)CC(=O)O` [Rosuvastatin calcium (Crestor), Rosuvastatin calcium], the “Average Incidence SD Away” value was 1.644 SD.

Regarding `Cc1nn(-c2ccccc2)c(C)c1/C=N/N1CCN(Cc2ccccc2)CC1` [SANT-1], the “Average Length SD Away” value is 1.811 SD.

Consider S(−)-Atenolol, for which the “Average Incidence SD Away” value came to 2.177 SD and the “Average Length SD Away” value stood at 2.057 SD.

Regarding `COC(=O)[C@H](Cc1ccccc1)NC(=O)[C@@H](N)CC(=O)O` [Aspartame] (H-Asp-Phe-OMe), the “Average Incidence SD Away” value stood at 1.732 SD.

Take `COc1cc2c(cc1OC)CC(=O)N(CCCN(C)C[C@H]1Cc3cc(OC)c(OC)cc31)CC2` [Ivabradine HCl (Procoralan), Ivabradine HCl]: the “Average Incidence SD Away” value was found to be 1.611 SD.

For the compound `Fc1ccc(-c2nc3n(c2-c2ccncc2)CCS3)cc1` [SKF 86002 dihydrochloride], the “Average Length SD Away” value amounted to 1.549 SD.

As for `NC(=O)NO` [Hydroxyurea (Cytodrox), Hydroxyurea], the “Average Incidence SD Away” value is 1.988 SD.

`CC(=O)O[C@]1(C(C)=O)CC[C@H]2[C@@H]3C[C@H](C)C4=CC(=O)CC[C@]4(C)[C@H]3CC[C@@]21C` [Medroxyprogesterone acetate]: the “Average Incidence SD Away” value amounted to 2.659 SD.

Consider `COc1nccc(-c2c(-c3ccc(F)cc3)ncn2C2CCC(O)CC2)n1` (stereo not drawn) [SB 239063], for which the “Average Incidence SD Away” value is reported as 1.795 SD and the “Average Length SD Away” value is recorded as 4 SD.

For the compound `O=c1c(-c2ccc(O)cc2)coc2cc(O)cc(O)c12` [Genistein], the “Average Incidence SD Away” value is on record as 1.524 SD.

Take `CC1(C)C(=O)C=C[C@]2(C)[C@H]3CC[C@@]4(C)[C@H](c5ccoc5)OC(=O)[C@H]5O[C@]54[C@]3(C)C(=O)C[C@@H]12` [DEACETOXY-7-OXOGEDUNIN]: the “Average Length SD Away” value is recorded as 1.843 SD.

Consider `CCc1c2c(nc3ccc(OC(=O)N4CCC(N5CCCCC5)CC4)cc13)-c1cc3c(c(=O)n1C2)COC(=O)[C@]3(O)CC` [Irinotecan], for which the “Average Incidence SD Away” value came out at 1.681 SD and the “Average Length SD Away” value is on record as 1.658 SD.

For the compound `CCN(CC)CCNc1ccc(CO)c2sc3ccccc3c(=O)c12` [HYCANTHONE], the “Average Length SD Away” value turned out to be 2.896 SD.

Regarding `CC1=NN(c2ccccc2)C(=O)C1` [Edaravone (MCI-186), Edaravone], the “Average Incidence SD Away” value is on record as 1.537 SD.

Consider `CCN(C)C(=O)Oc1cccc([C@H](C)N(C)C)c1` [Rivastigmine tartrate (Exelon), Rivastigmine tartrate], for which the “Average Incidence SD Away” value came to 1.664 SD.

With `COC(=O)C1=CO[C@@H](O[C@@H]2O[C@H](CO)[C@@H](O)[C@H](O)[C@H]2O)[C@@H]2C(CO)=CC[C@H]12` [Geniposide], the “Average Incidence SD Away” value is listed as 4.335 SD.

With `S=c1nc[nH]c2nc[nH]c12` [MERCAPTOPURINE], the “Average Length SD Away” value was determined as 1.722 SD.

Consider `CC(=O)O[C@@H]1C[C@H]2C(C)(C)C(=O)C=C[C@]2(C)[C@H]2CC[C@]3(C)C(=CC(=O)O[C@H]3c3ccoc3)[C@@]21C` [DEOXYGEDUNIN], for which the “Average Length SD Away” value worked out at 2.161 SD.

With `CC[n+]1c(-c2ccccc2)c2cc(N)ccc2c2ccc(N)cc21` [HOMIDIUM BROMIDE], the “Average Length SD Away” value came out at 1.694 SD.

Regarding `CC(NC(C)(C)C)C(=O)c1cccc(Cl)c1` (stereo not drawn) [Amfebutamone (Bupropion), Amfebutamone], the “Average Incidence SD Away” value is recorded as 1.605 SD.
